Source: US5281604A, “Angiotensin II receptor blocking 2,3,6-substituted quinazolinones” (American Cyanamid Company, priority 1993, dated 1994)
“And” between values parts separate entries of the source, which are not always exact repeats. Equal values may be shown once.

Tested on: ANGIOTENSIN II (AII) VASOPRESSOR RESPONSE
Experiment: AII Challenge: blockade of the angiotensin II vasopressor response in conscious spontaneously hypertensive rats
Format: in vivo, rat (Male Okamoto-Aoki SHR)
Settings: 3 mg/kg i.v.
Text: By administering a compound of this invention to a rat, and then challenging with angiotensin II, a blockage of the vasopressor response is realized.
Conscious Male Okamoto-Aoki SHR, 16-20 weeks old, weighing approximately 330 g are purchased from Charles River Labs (Wilmington, Mass.). Conscious rats are restrained in a supine position with elastic tape. The area at the base of the tail is locally anesthetized by subcutaneous infiltration with 2% procaine. The ventral caudal artery and vein are isolated, and a cannula made of polyethylene (PE) 10-20 tubing (fused together by heat) is passed into the lower abdominal aorta and vena cava, respectively. The cannula is secured, heparinized (1,000 I.U./ml), sealed and the wound is closed. The animals are placed in plastic restraining cages in an upright position. The cannula is attached to a Statham P23Db pressure transducer, and pulsatile blood pressure is recorded to 10-15 minutes with a Gould Brush recorder. (Chan et al., (Drug Development Res., 18:75-94, 1989).
Angiotensin II (human sequence, Sigma Chem. Co., St. Louis, Mo.) of 0.05 and 0.1 ug/kg i.v. is injected into all rats (predosing response). Then a test compound, vehicle or a known angiotensin II antagonist is administered i.v., i.p. or orally to each set of rats. The two doses of angiotensin II are given to each rat again at 30, 60, 90, 120, 180, 240 and 300 minutes post dosing the compound or vehicle. The vasopressor response of angiotensin II is measured for the increase in systolic blood pressure in mmHg. The percentage of antagonism or blockade of the vasopressor response of angiotensin II by a compound is calculated using the vasopressor response (increase in systolic blood pressure) of angiotensin II of each rat predosing the compound as 100%. A compound is considered active if at 30 mg/kg i.v. it antagonized at least 50% of the response.

[1] = AII 0.05 mcg/kg IV, 30 min post dose
[2] = AII 0.05 mcg/kg IV, 60 min post dose
[3] = AII 0.05 mcg/kg IV, 90 min post dose
[4] = AII 0.05 mcg/kg IV, 120 min post dose
[5] = AII 0.05 mcg/kg IV, 180 min post dose
[6] = AII 0.05 mcg/kg IV, 240 min post dose
[7] = AII 0.05 mcg/kg IV, 300 min post dose
[8] = AII 0.1 mcg/kg IV, 30 min post dose
[9] = AII 0.1 mcg/kg IV, 60 min post dose
[10] = AII 0.1 mcg/kg IV, 90 min post dose
[11] = AII 0.1 mcg/kg IV, 120 min post dose
[12] = AII 0.1 mcg/kg IV, 180 min post dose
[13] = AII 0.1 mcg/kg IV, 240 min post dose
[14] = AII 0.1 mcg/kg IV, 300 min post dose

With CCCCc1nc2ccc(C3CC4C(O3)ON3C4CCC3(C)C)cc2c(=O)n1Cc1ccc(-c2ccccc2-c2nnn[nH]2)cc1 (stereo not shown) [Example 14] the “% Inhibition” value [1] was 79%, the “Average Change” value [1] was 7.5 mmHg and the “Control Before AII (single rat)” value [1] was 225 mmHg and 240 mmHg. The “Response After AII (single rat)” value [1] was 225 mmHg and 250 mmHg, the “Response Change (single rat)” value [1] was 0 mmHg and 15 mmHg and the “% Inhibition” value [2] was 64%. The “Average Change” value [2] was 12.5 mmHg, the “Control Before AII (single rat)” value [2] was 225 mmHg and 240 mmHg and the “Response After AII (single rat)” value [2] was 235 mmHg and 255 mmHg. For the same compound, the “Response Change (single rat)” value [2] was 10 mmHg and 15 mmHg, the “% Inhibition” value [3] was 74% and the “Average Change” value [3] was 9 mmHg. The “Control Before AII (single rat)” value [3] was 225 mmHg and 237 mmHg, the “Response After AII (single rat)” value [3] was 235 mmHg and 245 mmHg and the “Response Change (single rat)” value [3] was 10 mmHg and 8 mmHg. For the same compound, the “% Inhibition” value [4] was 76%, the “Average Change” value [4] was 8.5 mmHg and the “Control Before AII (single rat)” value [4] was 210 mmHg and 230 mmHg. The “Response After AII (single rat)” value [4] was 215 mmHg and 242 mmHg, the “Response Change (single rat)” value [4] was 5 mmHg and 12 mmHg and the “% Inhibition” value [5] was 76%. For the same compound, the “Average Change” value [5] was 8.5 mmHg, the “Control Before AII (single rat)” value [5] was 215 mmHg and 230 mmHg and the “Response After AII (single rat)” value [5] was 225 mmHg and 237 mmHg. The “Response Change (single rat)” value [5] was 10 mmHg and 7 mmHg, the “% Inhibition” value [6] was 71% and the “Average Change” value [6] was 10 mmHg. The “Control Before AII (single rat)” value [6] was 205 mmHg and 230 mmHg, the “Response After AII (single rat)” value [6] was 215 mmHg and 240 mmHg and the “Response Change (single rat)” value [6] was 10 mmHg. For the same compound, the “% Inhibition” value [7] was 74%, the “Average Change” value [7] was 9 mmHg and the “Control Before AII (single rat)” value [7] was 220 mmHg and 235 mmHg. For the same compound, the “Response After AII (single rat)” value [7] was 228 mmHg and 245 mmHg, the “Response Change (single rat)” value [7] was 8 mmHg and 10 mmHg and the “% Inhibition” value [8] was 56%. The “Average Change” value [8] was 17.5 mmHg, the “Control Before AII (single rat)” value [8] was 230 mmHg and 245 mmHg and the “Response After AII (single rat)” value [8] was 240 mmHg and 270 mmHg. The “Response Change (single rat)” value [8] was 10 mmHg and 25 mmHg, the “% Inhibition” value [9] was 56% and the “Average Change” value [9] was 17.5 mmHg. For the same compound, the “Control Before AII (single rat)” value [9] was 215 mmHg and 245 mmHg, the “Response After AII (single rat)” value [9] was 235 mmHg and 260 mmHg and the “Response Change (single rat)” value [9] was 20 mmHg and 15 mmHg. The “% Inhibition” value [10] was 60%, the “Average Change” value [10] was 16 mmHg and the “Control Before AII (single rat)” value [10] was 220 mmHg and 240 mmHg. The “Response After AII (single rat)” value [10] was 235 mmHg and 257 mmHg, the “Response Change (single rat)” value [10] was 15 mmHg and 17 mmHg and the “% Inhibition” value [11] was 63%. The “Average Change” value [11] was 15 mmHg, the “Control Before AII (single rat)” value [11] was 215 mmHg and 230 mmHg and the “Response After AII (single rat)” value [11] was 230 mmHg and 245 mmHg. For the same compound, the “Response Change (single rat)” value [11] was 15 mmHg, the “% Inhibition” value [12] was 69% and the “Average Change” value [12] was 12.5 mmHg. The “Control Before AII (single rat)” value [12] was 215 mmHg and 230 mmHg, the “Response After AII (single rat)” value [12] was 225 mmHg and 245 mmHg and the “Response Change (single rat)” value [12] was 10 mmHg and 15 mmHg. The “% Inhibition” value [13] was 56%, the “Average Change” value [13] was 17.5 mmHg and the “Control Before AII (single rat)” value [13] was 215 mmHg and 225 mmHg. For the same compound, the “Response After AII (single rat)” value [13] was 230 mmHg and 245 mmHg, the “Response Change (single rat)” value [13] was 15 mmHg and 20 mmHg and the “% Inhibition” value [14] was 46%. The “Average Change” value [14] was 21.5 mmHg, the “Control Before AII (single rat)” value [14] was 215 mmHg and 235 mmHg and the “Response After AII (single rat)” value [14] was 233 mmHg and 260 mmHg. The “Response Change (single rat)” value [14] was 18 mmHg and 25 mmHg.
